# According to ChEMBL document CHEMBL1909533, “Micelles catalyzed chemoselective synthesis 'in water' and biological evaluation of oxygen containing hetero-1,4-naphthoquinones as potential antifungal agents” (2011):
# What was measured:
# Assay type in all cases: functional
# Candida albicans [1] = assay: Antifungal activity against Candida albicans by broth microdilution method
# Aspergillus fumigatus = assay: Antifungal activity against Aspergillus fumigatus by broth microdilution method
# Cryptococcus neoformans [2] = assay: Antifungal activity against Cryptococcus neoformans by broth microdilution method
# Sporothrix schenckii = assay: Antifungal activity against Sporothrix schenckii by broth microdilution method
# [3] = test system: Trichophyton mentagrophytes; assay: Antifungal activity against Trichophyton mentagrophytes by broth microdilution method
# Candida parapsilosis [4] = assay: Antifungal activity against Candida parapsilosis by broth microdilution method; conditions: Lodderomyces parapsilosis
# Escherichia coli = assay: Antibacterial activity against Escherichia coli by micro-broth dilution method
# Pseudomonas aeruginosa = assay: Antibacterial activity against Pseudomonas aeruginosa by micro-broth dilution method
# Klebsiella pneumoniae = assay: Antibacterial activity against Klebsiella pneumoniae ATCC 27736 by micro-broth dilution method
# Staphylococcus aureus = assay: Antibacterial activity against Staphylococcus aureus ATCC 25923 by micro-broth dilution method
# Candida albicans [5] = assay: Ratio of miconazole MIC50 to compound MIC50 for Candida albicans
# Candida parapsilosis [6] = assay: Ratio of 2-chloro-3-(4-hydroxyphenylamino)naphthalene-1,4-dione MIC50 to compound MIC50 for Candida parapsilosis
# Candida parapsilosis [7] = assay: Ratio of 2-Chloro-3-phenylsulfanyl-[1,4]naphthoquinone MIC50 to compound MIC50 for Candida parapsilosis
# [8] = test system: Trichophyton mentagrophytes; assay: Ratio of amphotericin-B MIC50 to compound MIC50 for Trichophyton mentagrophytes
# [9] = test system: Trichophyton mentagrophytes; assay: Ratio of fluconazole MIC50 to compound MIC50 for Trichophyton mentagrophytes
# Cryptococcus neoformans [10] = assay: Ratio of miconazole MIC50 to compound MIC50 for Cryptococcus neoformans
Compound,MIC (Candida albicans [1]) [µg/mL],MIC (Aspergillus fumigatus) [µg/mL],MIC (Cryptococcus neoformans [2]) [µg/mL],MIC (Sporothrix schenckii) [µg/mL],MIC [3] [µg/mL],MIC (Candida parapsilosis [4]) [µg/mL],MIC (Escherichia coli) [µg/mL],MIC (Pseudomonas aeruginosa) [µg/mL],MIC (Klebsiella pneumoniae) [µg/mL],MIC (Staphylococcus aureus) [µg/mL],Ratio (Candida albicans [5]),Ratio (Candida parapsilosis [6]),Ratio (Candida parapsilosis [7]),Ratio [8],Ratio [9],Ratio (Cryptococcus neoformans [10])
OC(Cn1cncn1)(Cn1cncn1)c1ccc(F)cc1F [FLUCONAZOLE],1,2,0.5,2,1.56,1,,,,,,,,,,
O=C1C(Cl)=C(Oc2ccccc2OC2=C(Cl)C(=O)c3ccccc3C2=O)C(=O)c2ccccc21,50,> 50,> 50,25,50,50,> 50,> 50,> 50,> 50,,,,,,
Cc1ccc(OC2=C(Cl)C(=O)c3ccccc3C2=O)cc1,6.25,25,12.5,0.78,1.56,3.12,25,> 50,> 50,12.5,4,2,2,,,
O=C1C(Cl)=C(Oc2ccc3ccccc3c2)C(=O)c2ccccc21,> 50,50,> 50,> 50,50,> 50,> 50,> 50,> 50,> 50,,,,,,
O=C1C(Cl)=C(Nc2ccc(O)cc2)C(=O)c2ccccc21,1.56,3.12,0.78,1.56,1.56,6.25,,,,,,,,,,
COc1ccc(OC2=C(Cl)C(=O)c3ccccc3C2=O)cc1,12.5,50,12.5,1.56,1.56,6.25,> 50,> 50,> 50,50,2,,,,,
O=C1C(Cl)=C(Oc2ccccc2)C(=O)c2ccccc21,12.5,50,6.25,3.12,0.78,12.5,> 50,> 50,> 50,50,,,,2,2,2
Cc1ccc(OC2=C(Sc3ccccc3)C(=O)c3ccccc3C2=O)cc1,25,> 50,12.5,1.56,0.78,12.5,> 50,> 50,> 50,25,,,,2,2,
C[C@@H]1[C@H](O)[C@@H](C)/C=C/C=C/C=C/C=C/C=C/C=C/C=C/[C@H](O[C@@H]2O[C@H](C)[C@@H](O)[C@H](N)[C@@H]2O)C[C@@H]2O[C@](O)(C[C@@H](O)C[C@@H](O)[C@H](O)CC[C@@H](O)C[C@@H](O)CC(=O)O[C@H]1C)C[C@H](O)[C@H]2C(=O)O [AMPHOTERICIN B],0.39,,0.78,,1.56,,,,,,,,,,,
GENTAMICIN,,,,,,,0.18,0.39,0.78,0.78,,,,,,
Cc1cc(C)cc(OC2=C(Cl)C(=O)c3ccccc3C2=O)c1,12.5,50,12.5,1.56,1.56,3.12,50,> 50,> 50,25,,2,2,,,
NC[C@H]1O[C@H](O[C@H]2[C@H](O)[C@@H](O[C@H]3O[C@H](CO)[C@@H](O)[C@H](N)[C@H]3O)[C@H](N)C[C@@H]2N)[C@H](N)C[C@@H]1O [TOBRAMYCIN],,,,,,,0.5,1,4,0.25,,,,,,
NCC[C@H](O)C(=O)N[C@@H]1C[C@H](N)[C@@H](O[C@H]2O[C@H](CN)[C@@H](O)[C@H](O)[C@H]2O)[C@H](O)[C@H]1O[C@H]1O[C@H](CO)[C@@H](O)[C@H](N)[C@H]1O [AMIKACIN],,,,,,,1,1,2,16,,,,,,
Clc1ccc(COC(Cn2ccnc2)c2ccc(Cl)cc2Cl)c(Cl)c1 (stereo unspecified) [MICONAZOLE],25,12.5,12.5,,< 0.78,,,,,,,,,,,
Cc1ccc(OC2=C(Nc3ccccc3)C(=O)c3ccccc3C2=O)cc1,12.5,50,12.5,1.56,0.78,12.5,50,> 50,> 50,50,,,,2,2,
O=C1C(Cl)=C(Oc2cccc3ccccc23)C(=O)c2ccccc21,12.5,> 50,25,1.56,1.56,12.5,50,> 50,> 50,25,2,,,,,
O=C1C=C(Sc2ccccc2)C(=O)c2ccccc21,12.5,25,1.56,,0.78,,,,,,,,,,,
Cc1cc2c(cc1OC1=C(O)C(=O)c3ccccc3C1=O)C(=O)c1ccccc1C2=O [NEWBOULDIAQUINONE A],4.88,,,,,,,,,,,,,,,
O=c1c2oc3ccccc3oc=2c(=O)c2ccccc12,6.25,25,12.5,0.78,1.56,3.12,50,> 50,> 50,25,4,2,2,,,
NC[C@H]1O[C@H](O[C@H]2[C@H](O)[C@@H](O[C@H]3O[C@H](CO)[C@@H](O)[C@H](N)[C@H]3O)[C@H](N)C[C@@H]2N)[C@H](O)[C@@H](O)[C@@H]1O [KANAMYCIN],,,,,,,16,32,> 128,2,,,,,,
Cc1ccc(OC2=C(Sc3ccc(C)cc3)C(=O)c3ccccc3C2=O)cc1,25,> 50,12.5,3.12,1.56,25,> 50,> 50,> 50,12.5,,,,,,
NYSTATIN,7.8,,3.5,13.2,,,,,,,,,,,,
O=C1C(Cl)=C(Oc2ccc(Cl)cc2)C(=O)c2ccccc21,12.5,> 50,12.5,1.56,1.56,6.25,> 50,> 50,> 50,50,2,,,,,
